Results reported in PubChem BioAssay AID256 (DTP/NCI, 2004).
“And” between values parts separate entries of the source, which are not always exact repeats. Equal values may be shown once. Toxic doses and inconclusive results are not listed.

Test system: CD2F1 mice, L1210 leukemia ip, survival T/C
Assay: NCI In Vivo Anticancer Drug Screen. Data for tumor model L1210 Leukemia (intraperitoneal) in CD2F1 (CDF1) mice
Conditions: higher = longer survival
How it was run: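 Tumor-bearing mice (transplanted tumor) were split into treated and vehicle control groups, and the measured endpoint of each treated group was divided by that of its vehicle controls.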

[1] = endpoint: mean survival time, dose: 100.0 mg/kg/injection, schedule: Q04DX002 (ip), vehicle: saline with Tween-80
[2] = endpoint: mean survival time, dose: 200.0 mg/kg/injection, schedule: Q04DX002 (ip), vehicle: saline with Tween-80
[3] = endpoint: mean survival time, dose: 100.0 mg/kg/injection, schedule: Q01DX009 (ip), vehicle: saline
[4] = endpoint: mean survival time, dose: 100.0 mg/kg/injection, schedule: Q04DX003 (ip), vehicle: acetone
[5] = endpoint: mean survival time, dose: 200.0 mg/kg/injection, schedule: Q01DX009 (ip), vehicle: saline
[6] = endpoint: mean survival time, dose: 200.0 mg/kg/injection, schedule: Q04DX003 (ip), vehicle: acetone
[7] = endpoint: mean survival time, dose: 400.0 mg/kg/injection, schedule: Q04DX003 (ip), vehicle: acetone
[8] = endpoint: mean survival time, dose: 100.0 mg/kg/injection, schedule: Q04DX003 (ip), vehicle: saline with Tween-80
[9] = endpoint: mean survival time, dose: 12.5 mg/kg/injection, schedule: Q01DX009 (ip), vehicle: saline
[10] = endpoint: mean survival time, dose: 25.0 mg/kg/injection, schedule: Q01DX009 (ip), vehicle: saline
[11] = endpoint: mean survival time, dose: 200.0 mg/kg/injection, schedule: Q04DX003 (ip), vehicle: saline with Tween-80
[12] = endpoint: mean survival time, dose: 400.0 mg/kg/injection, schedule: Q04DX003 (ip), vehicle: saline with Tween-80
[13] = endpoint: mean survival time, dose: 50.0 mg/kg/injection, schedule: Q01DX009 (ip), vehicle: saline with Tween-80
[14] = endpoint: mean survival time, dose: 100.0 mg/kg/injection, schedule: Q01DX009 (ip), vehicle: saline with Tween-80
[15] = endpoint: mean survival time, dose: 200.0 mg/kg/injection, schedule: Q01DX009 (ip), vehicle: saline with Tween-80

CCN1/C(=C/C=C/C=C/c2sc3ccccc3[n+]2CC)Sc2ccccc21 was tested, and the T/C (endpoint: mean survival time, dose: 0.08 mg/kg/injection, schedule: Q01DX009 (ip), vehicle: saline) was 109 % of control, the T/C (endpoint: mean survival time, dose: 0.09 mg/kg/injection, schedule: Q01DX009 (ip), vehicle: saline) was 117 % of control and the T/C (endpoint: mean survival time, dose: 0.12 mg/kg/injection, schedule: Q01DX009 (ip), vehicle: saline) was 114 % of control. For the same compound, the T/C (endpoint: mean survival time, dose: 0.16 mg/kg/injection, schedule: Q04DX003 (ip), vehicle: saline) was 105 % of control, the T/C (endpoint: mean survival time, dose: 0.19 mg/kg/injection, schedule: Q01DX009 (ip), vehicle: saline) was 121 % of control and the T/C (endpoint: mean survival time, dose: 0.25 mg/kg/injection, schedule: Q04DX003 (ip), vehicle: saline) was 112 % of control. For the same compound, the T/C (endpoint: mean survival time, dose: 0.28 mg/kg/injection, schedule: Q01DX009 (ip), vehicle: saline) was 114 % of control, the T/C (endpoint: mean survival time, dose: 0.33 mg/kg/injection, schedule: Q04DX002 (ip), vehicle: saline) was 101 % of control and the T/C (endpoint: mean survival time, dose: 0.38 mg/kg/injection, schedule: Q04DX003 (ip), vehicle: saline) was 108 % of control. For the same compound, the T/C (endpoint: mean survival time, dose: 0.42 mg/kg/injection, schedule: Q01DX009 (ip), vehicle: saline) was 122 % of control, the T/C (endpoint: mean survival time, dose: 0.5 mg/kg/injection, schedule: Q04DX002 (ip), vehicle: saline) was 112 % of control and the T/C (endpoint: mean survival time, dose: 0.57 mg/kg/injection, schedule: Q04DX003 (ip), vehicle: saline) was 118 % of control. The T/C (endpoint: mean survival time, dose: 0.66 mg/kg/injection, schedule: Q01DX001 (ip), vehicle: saline) was 120 % of control, the T/C (endpoint: mean survival time, dose: 0.76 mg/kg/injection, schedule: Q04DX002 (ip), vehicle: saline) was 106 % of control and the T/C (endpoint: mean survival time, dose: 0.85 mg/kg/injection, schedule: Q04DX003 (ip), vehicle: saline) was 112 % of control. For the same compound, the T/C (endpoint: mean survival time, dose: 0.99 mg/kg/injection, schedule: Q01DX001 (ip), vehicle: saline) was 118 % of control, the T/C (endpoint: mean survival time, dose: 1.1 mg/kg/injection, schedule: Q04DX002 (ip), vehicle: saline) was 114 % of control and the T/C (endpoint: mean survival time, dose: 1.5 mg/kg/injection, schedule: Q01DX001 (ip), vehicle: saline) was 100 % of control. The T/C (endpoint: mean survival time, dose: 1.7 mg/kg/injection, schedule: Q04DX002 (ip), vehicle: saline) was 97 % of control, the T/C (endpoint: mean survival time, dose: 2.2 mg/kg/injection, schedule: Q01DX001 (ip), vehicle: saline) was 114 % of control and the T/C (endpoint: mean survival time, dose: 3.3 mg/kg/injection, schedule: Q01DX001 (ip), vehicle: saline) was 114 % of control.

CCCNC(=O)Nc1ccc(C(=O)OCC(C)C)cc1 was tested, and the T/C (endpoint: mean survival time, dose: 100.0 mg/kg/injection, schedule: Q04DX003 (ip), vehicle: saline) was 93 % of control, the T/C (endpoint: mean survival time, dose: 200.0 mg/kg/injection, schedule: Q04DX003 (ip), vehicle: saline) was 95 % of control and the T/C (endpoint: mean survival time, dose: 400.0 mg/kg/injection, schedule: Q04DX003 (ip), vehicle: saline) was 104 % of control.

With S=C=Nc1ccccn1 the T/C [1] was 86 % of control and the T/C [2] was 101 % of control.

CCCCC(C(=O)OCC)C1=NC(C)(C)CC(C)O1 (centres undefined) was tested, and the T/C [3] was 98 % of control, the T/C [4] was 101 % of control and the T/C [5] was 97 % of control. The T/C [6] was 90 % of control, the T/C (endpoint: mean survival time, dose: 400.0 mg/kg/injection, schedule: Q01DX009 (ip), vehicle: saline) was 97 % of control and the T/C [7] was 91 % of control.

With CC(C)(C)Nc1ccc([N+](=O)[O-])cc1Cl the T/C (endpoint: mean survival time, dose: 12.5 mg/kg/injection, schedule: Q01DX001 (ip), vehicle: DMSO) was 89 % of control, the T/C (endpoint: mean survival time, dose: 25.0 mg/kg/injection, schedule: Q01DX001 (ip), vehicle: DMSO) was 100 % of control and the T/C (endpoint: mean survival time, dose: 25.0 mg/kg/injection, schedule: Q04DX003 (ip), vehicle: Klucel (hydroxypropylcellulose) (HPC)) was 93 % of control. The T/C (endpoint: mean survival time, dose: 50.0 mg/kg/injection, schedule: Q01DX001 (ip), vehicle: DMSO) was 103 % of control, the T/C (endpoint: mean survival time, dose: 50.0 mg/kg/injection, schedule: Q04DX003 (ip), vehicle: Klucel (hydroxypropylcellulose) (HPC)) was 94 % of control and the T/C (endpoint: mean survival time, dose: 100.0 mg/kg/injection, schedule: Q04DX003 (ip), vehicle: Klucel (hydroxypropylcellulose) (HPC)) was 91 % of control.

CC1=C(C)CS(=O)(=O)C1 was tested, and the T/C [8] was 95 % of control.

With c1ccc(CN2CCOC2)cc1 the T/C [9] was 95 % of control and 101 % of control, the T/C [10] was 97 % of control and 101 % of control and the T/C (endpoint: mean survival time, dose: 50.0 mg/kg/injection, schedule: Q01DX009 (ip), vehicle: saline) was 100 % of control and 106 % of control. For the same compound, the T/C [3] was 104 % of control and 106 % of control and the T/C [5] was 95 % of control and 106 % of control.

In the case of Cc1ccc(CSCc2ccc(C)cc2)cc1, the T/C (endpoint: mean survival time, dose: 100.0 mg/kg/injection, schedule: Q04DX003 (ip), vehicle: other) is reported as 100 % of control, the T/C (endpoint: mean survival time, dose: 200.0 mg/kg/injection, schedule: Q04DX003 (ip), vehicle: other) is reported as 107 % of control and the T/C (endpoint: mean survival time, dose: 400.0 mg/kg/injection, schedule: Q04DX003 (ip), vehicle: other) is reported as 97 % of control.

For c1ccc2c(c1)Cn1c-2nc2ccccc21, the T/C [8] was 97 % of control, the T/C [11] was 97 % of control and the T/C [12] was 94 % of control.

O=c1nc(OCCO)c([N+](=O)[O-])c(C(Cl)(Cl)Cl)[nH]1 was tested, and the T/C [8] was 96 % of control, the T/C [11] was 97 % of control and the T/C [12] was 89 % of control.

For O=C1C=CN(C2OC(COC(=O)c3ccccc3)C(O)C2O)C(=O)C1 (centres undefined), the T/C (endpoint: median survival time, dose: 67.0 mg/kg/injection, schedule: Q01DX009 (ip), vehicle: saline + Tween-80 + alcohol) was 168 % of control, the T/C (endpoint: median survival time, dose: 100.0 mg/kg/injection, schedule: Q01DX009 (ip), vehicle: saline + Tween-80 + alcohol) was 169 % of control and the T/C (endpoint: median survival time, dose: 150.0 mg/kg/injection, schedule: Q01DX009 (ip), vehicle: saline + Tween-80 + alcohol) was 165 % of control. The T/C (endpoint: median survival time, dose: 225.0 mg/kg/injection, schedule: Q01DX009 (ip), vehicle: saline + Tween-80 + alcohol) was 161 % of control.

FC(F)(F)c1cccc(C(OCCN2CCCC2)c2ccccc2)c1 (centres undefined) was tested, and the T/C (endpoint: mean survival time, dose: 6.25 mg/kg/injection, schedule: Q01DX009 (ip), vehicle: saline) was 105 % of control, the T/C [9] was 105 % of control and the T/C [10] was 109 % of control.

CCOC(C[N+](C)(C)C)OCC was tested, and the T/C [13] was 100 % of control and the T/C [14] was 94 % of control.

In the case of COCC1OC(COC)C(OC)C1OC (centres undefined), the T/C [4] is reported as 102 % of control, the T/C [6] is reported as 102 % of control and the T/C [7] is reported as 94 % of control.

In the case of O=C(O)C1CC2C(=O)CCCCCCC2C1O (centres undefined), the T/C (endpoint: mean survival time, dose: 100.0 mg/kg/injection, schedule: Q01DX001 (ip), vehicle: saline with Tween-80) is reported as 93 % of control, the T/C [14] is reported as 98 % of control and the T/C (endpoint: mean survival time, dose: 200.0 mg/kg/injection, schedule: Q01DX001 (ip), vehicle: saline with Tween-80) is reported as 98 % of control. The T/C [15] was 93 % of control, the T/C (endpoint: mean survival time, dose: 400.0 mg/kg/injection, schedule: Q01DX001 (ip), vehicle: saline with Tween-80) was 91 % of control and the T/C (endpoint: mean survival time, dose: 400.0 mg/kg/injection, schedule: Q01DX009 (ip), vehicle: saline with Tween-80) was 96 % of control.

In the case of O=C(O)/C=C/C1=CCCCC1, the T/C [13] is reported as 101 % of control, the T/C [14] is reported as 93 % of control and the T/C [15] is reported as 93 % of control.

With COC(=O)c1cc(C2OC3OC(C)(C)OC3C2OCc2ccccc2)nn1-c1ccc([N+](=O)[O-])cc1 (centres undefined) the T/C (endpoint: median survival time, dose: 11.5 mg/kg/injection, schedule: Q01DX005 (ip), vehicle: other) was 101 % of control, the T/C (endpoint: median survival time, dose: 23.0 mg/kg/injection, schedule: Q01DX005 (ip), vehicle: other) was 100 % of control and the T/C (endpoint: median survival time, dose: 46.0 mg/kg/injection, schedule: Q01DX005 (ip), vehicle: other) was 100 % of control. The T/C (endpoint: median survival time, dose: 92.0 mg/kg/injection, schedule: Q01DX005 (ip), vehicle: other) was 100 % of control.

For CC1(C(=O)O)CCCC2(C)c3cc(O)ccc3CCC12 (centres undefined), the T/C (endpoint: mean survival time, dose: 50.0 mg/kg/injection, schedule: Q01DX009 (ip), vehicle: Klucel (hydroxypropylcellulose) (HPC)) was 94 % of control and the T/C (endpoint: mean survival time, dose: 100.0 mg/kg/injection, schedule: Q01DX009 (ip), vehicle: Klucel (hydroxypropylcellulose) (HPC)) was 90 % of control.

With COc1ccc(Nc2ncnc3c2ncn3C2OC(CO)C(O)C2O)cc1 (centres undefined) the T/C (endpoint: mean survival time, dose: 6.25 mg/kg/injection, schedule: Q01DX005 (ip), vehicle: distilled water + Tween-80) was 101 % of control, the T/C (endpoint: mean survival time, dose: 12.5 mg/kg/injection, schedule: Q01DX005 (ip), vehicle: distilled water + Tween-80) was 102 % of control and 96 % of control and the T/C (endpoint: mean survival time, dose: 25.0 mg/kg/injection, schedule: Q01DX005 (ip), vehicle: distilled water + Tween-80) was 104 % of control and 96 % of control. For the same compound, the T/C (endpoint: mean survival time, dose: 50.0 mg/kg/injection, schedule: Q01DX005 (ip), vehicle: distilled water + Tween-80) was 91 % of control, the T/C (endpoint: mean survival time, dose: 100.0 mg/kg/injection, schedule: Q01DX005 (ip), vehicle: distilled water + Tween-80) was 102 % of control and the T/C (endpoint: mean survival time, dose: 200.0 mg/kg/injection, schedule: Q01DX005 (ip), vehicle: distilled water + Tween-80) was 100 % of control.

Cc1ccccc1NC(=O)Oc1cccc(OC(=O)c2ccccc2)c1 was tested, and the T/C [1] was 103 % of control, the T/C [2] was 103 % of control and the T/C (endpoint: mean survival time, dose: 400.0 mg/kg/injection, schedule: Q04DX002 (ip), vehicle: saline with Tween-80) was 91 % of control.
